Results reported in paper PMC8330742, “New benzothieno[2,3-c]pyridines as non-steroidal CYP17 inhibitors: design, synthesis, anticancer screening, apoptosis induction, and in silico ADME profile studies” (Journal of Enzyme Inhibition and Medicinal Chemistry, 2021).

Key:
CCRF-CEM = test: NCI-60 SRB screen; assay type: cell-based; settings: Homo sapiens, single dose 10^−5 M, read-out: Growth inhibition (%)
HL-60(TB) = test: NCI-60 SRB screen; assay type: cell-based, human; settings: Homo sapiens; HL-60 (TB); single dose 10^−5 M; read-out: Growth inhibition (%)
K-562 = test: NCI-60 SRB screen; assay type: cell-based, human; settings: Homo sapiens, K562; K-562; single dose 10^−5 M; read-out: Growth inhibition (%)
MOLT-4 = test: NCI-60 SRB screen; assay type: cell-based; settings: Homo sapiens; MOLT-4; single dose 10^−5 M; read-out: Growth inhibition (%)
A549/ATCC = test: NCI-60 SRB screen; assay type: cell-based, human; settings: Homo sapiens, single dose 10^−5 M, read-out: Growth inhibition (%)
EKVX = test: NCI-60 SRB screen; assay type: cell-based, human; settings: Homo sapiens, single dose 10^−5 M, read-out: Growth inhibition (%)
HOP-62 = test: NCI-60 SRB screen; assay type: cell-based, human; settings: Homo sapiens; HOP-62; single dose 10^−5 M; read-out: Growth inhibition (%)
HOP-92 = test: NCI-60 SRB screen; assay type: cell-based, human; settings: Homo sapiens; HOP-92; single dose 10^−5 M; read-out: Growth inhibition (%)
NCI-H226 = test: NCI-60 SRB screen; assay type: cell-based, human; settings: Homo sapiens; NCI-H226; single dose 10^−5 M; read-out: Growth inhibition (%)
NCI-H23 = test: NCI-60 SRB screen; assay type: cell-based, human; settings: Homo sapiens; NCI-H23; single dose 10^−5 M; read-out: Growth inhibition (%)
NCI-H322M = test: NCI-60 SRB screen; assay type: cell-based, human; settings: Homo sapiens, single dose 10^−5 M, read-out: Growth inhibition (%)
NCI-H460 = test: NCI-60 SRB screen; assay type: cell-based, human; settings: Homo sapiens; NCI-H460; single dose 10^−5 M; read-out: Growth inhibition (%)
NCI-H522 = test: NCI-60 SRB screen; assay type: cell-based, human; settings: Homo sapiens; NCI-H522; single dose 10^−5 M; read-out: Growth inhibition (%)
COLO 205 = test: NCI-60 SRB screen; assay type: cell-based, human; settings: Homo sapiens; COLO 205; single dose 10^−5 M; read-out: Growth inhibition (%)
HCC-2998 = test: NCI-60 SRB screen; assay type: cell-based, human; settings: Homo sapiens; HCC-2998; single dose 10^−5 M; read-out: Growth inhibition (%)
HCT-116 = test: NCI-60 SRB screen; assay type: cell-based, human; settings: Homo sapiens; HCT-116; single dose 10^−5 M; read-out: Growth inhibition (%)
HCT-15 = test: NCI-60 SRB screen; assay type: cell-based, human; settings: Homo sapiens; HCT-15; single dose 10^−5 M; read-out: Growth inhibition (%)
HT-29 = test: NCI-60 SRB screen; assay type: cell-based; settings: Homo sapiens; HT-29; single dose 10^−5 M; read-out: Growth inhibition (%)
KM12 = test: NCI-60 SRB screen; assay type: cell-based, human; settings: Homo sapiens; KM12; single dose 10^−5 M; read-out: Growth inhibition (%)
SW-620 = test: NCI-60 SRB screen; assay type: cell-based; settings: Homo sapiens; SW-620; single dose 10^−5 M; read-out: Growth inhibition (%)
SF-268 = test: NCI-60 SRB screen; assay type: cell-based, human; settings: Homo sapiens; SF-268; single dose 10^−5 M; read-out: Growth inhibition (%)
SF-295 = test: NCI-60 SRB screen; assay type: cell-based, human; settings: Homo sapiens; SF-295; single dose 10^−5 M; read-out: Growth inhibition (%)
LOX IMVI = test: NCI-60 SRB screen; assay type: cell-based, human; settings: Homo sapiens, single dose 10^−5 M, read-out: Growth inhibition (%)
MALME-3M = test: NCI-60 SRB screen; assay type: cell-based, human; settings: Homo sapiens, single dose 10^−5 M, read-out: Growth inhibition (%)
M14 = test: NCI-60 SRB screen; assay type: cell-based, human; settings: Homo sapiens; M14; single dose 10^−5 M; read-out: Growth inhibition (%)
SK-MEL-2 = test: NCI-60 SRB screen; assay type: cell-based, human; settings: Homo sapiens; SK-MEL-2; single dose 10^−5 M; read-out: Growth inhibition (%)
SK-MEL-28 = test: NCI-60 SRB screen; assay type: cell-based; settings: Homo sapiens; SK-MEL-28; single dose 10^−5 M; read-out: Growth inhibition (%)
SK-MEL-5 = test: NCI-60 SRB screen; assay type: cell-based, human; settings: Homo sapiens; SK-MEL-5; single dose 10^−5 M; read-out: Growth inhibition (%)
UACC-257 = test: NCI-60 SRB screen; assay type: cell-based, human; settings: Homo sapiens, UACC-257; UACC-275 (so in the source); single dose 10^−5 M; read-out: Growth inhibition (%)
UACC-62 = test: NCI-60 SRB screen; assay type: cell-based, human; settings: Homo sapiens; UACC-62; single dose 10^−5 M; read-out: Growth inhibition (%)
IGROV1 = test: NCI-60 SRB screen; assay type: cell-based, human; settings: Homo sapiens, IGROV-1; IGROV1; single dose 10^−5 M; read-out: Growth inhibition (%)
OVCAR-3 = test: NCI-60 SRB screen; assay type: cell-based, human; settings: Homo sapiens; OVCAR-3; single dose 10^−5 M; read-out: Growth inhibition (%)
OVCAR-4 = test: NCI-60 SRB screen; assay type: cell-based, human; settings: Homo sapiens; OVCAR-4; single dose 10^−5 M; read-out: Growth inhibition (%)
OVCAR-8 = test: NCI-60 SRB screen; assay type: cell-based, human; settings: Homo sapiens; OVCAR-8; single dose 10^−5 M; read-out: Growth inhibition (%)
NCI/ADR-RES = test: NCI-60 SRB screen; assay type: cell-based, human; settings: Homo sapiens, single dose 10^−5 M, read-out: Growth inhibition (%)
SK-OV-3 = test: NCI-60 SRB screen; assay type: cell-based, human; settings: Homo sapiens; SK-OV-3; single dose 10^−5 M; read-out: Growth inhibition (%)
786-0 = test: NCI-60 SRB screen; assay type: cell-based; settings: Homo sapiens; 786-0; single dose 10^−5 M; read-out: Growth inhibition (%)
ACHN = test: NCI-60 SRB screen; assay type: cell-based; settings: Homo sapiens, single dose 10^−5 M, read-out: Growth inhibition (%)
CAKI-1 = test: NCI-60 SRB screen; assay type: cell-based, human; settings: Homo sapiens; CAKI-1; single dose 10^−5 M; read-out: Growth inhibition (%)
RXF 393 = test: NCI-60 SRB screen; assay type: cell-based, human; settings: Homo sapiens; RXF 393; single dose 10^−5 M; read-out: Growth inhibition (%)
SN12C = test: NCI-60 SRB screen; assay type: cell-based, human; settings: Homo sapiens, SN12C; SN 12 C; single dose 10^−5 M; read-out: Growth inhibition (%)
TK-10 = test: NCI-60 SRB screen; assay type: cell-based, human; settings: Homo sapiens; TK-10; single dose 10^−5 M; read-out: Growth inhibition (%)
UO-31 = test: NCI-60 SRB screen; assay type: cell-based, human; settings: Homo sapiens; UO-31; single dose 10^−5 M; read-out: Growth inhibition (%)
[1] = system: panel of 60 cancer cell lines; test: NCI-60 SRB screen, mean or range over the panel; assay type: cell-based, human; settings: Homo sapiens; mean over the cell lines; single dose 10^−5 M; read-out: Mean growth inhibition (%)

**Q.** What does the source list for `O=C1NC(c2cccc([N+](=O)[O-])c2)c2sc3c(F)cccc3c2C1N1CCOCC1` (centres unmarked) [Compound 6b, 8-Fluoro-4-morpholino-1(3-nitrophenyl)-1,2-dihydro[1]benzothieno[2,3-c]pyridin-3(4H)-one]?
**A.** inhibition at 10 µM (CCRF-CEM): -0.89%; inhibition at 10 µM (HL-60(TB)): 3%; inhibition at 10 µM (K-562): 6.63%; inhibition at 10 µM (MOLT-4): 7.9%; inhibition at 10 µM (A549/ATCC): -0.83%; inhibition at 10 µM (EKVX): 2.98%; inhibition at 10 µM (HOP-62): 12.7%; inhibition at 10 µM (HOP-92): 13.3%; inhibition at 10 µM (NCI-H226): 19.4%; inhibition at 10 µM (NCI-H23): 5.78%; inhibition at 10 µM (NCI-H322M): -2.43%; inhibition at 10 µM (NCI-H460): 0.21%; inhibition at 10 µM (NCI-H522): 10.4%; inhibition at 10 µM (COLO 205): -10.9%; inhibition at 10 µM (HCC-2998): -9.62%; inhibition at 10 µM (HCT-116): 12.5%; inhibition at 10 µM (HCT-15): -4.99%; inhibition at 10 µM (HT-29): 3.1%; inhibition at 10 µM (KM12): 2.35%; inhibition at 10 µM (SW-620): 7.48%; inhibition at 10 µM (SF-268): 6.1%; inhibition at 10 µM (SF-295): 1.1%; inhibition at 10 µM (LOX IMVI): -0.6%; inhibition at 10 µM (MALME-3M): 0.18%; inhibition at 10 µM (M14): -1.23%; inhibition at 10 µM (SK-MEL-2): -12.7%; inhibition at 10 µM (SK-MEL-28): -11.5%; inhibition at 10 µM (SK-MEL-5): 0.57%; inhibition at 10 µM (UACC-257): -10.7%; inhibition at 10 µM (UACC-62): 3.55%; inhibition at 10 µM (IGROV1): 21.5%; inhibition at 10 µM (OVCAR-3): 1.9%; inhibition at 10 µM (OVCAR-4): 0.3%; inhibition at 10 µM (OVCAR-8): 2.6%; inhibition at 10 µM (NCI/ADR-RES): 1.78%; inhibition at 10 µM (SK-OV-3): 0.4%; inhibition at 10 µM (786-0): -11.1%; inhibition at 10 µM (ACHN): 4.34%; inhibition at 10 µM (CAKI-1): 23%; inhibition at 10 µM (RXF 393): 6.95%; inhibition at 10 µM (SN12C): 2.85%; inhibition at 10 µM (TK-10): -28.2%; inhibition at 10 µM (UO-31): 31.8%; inhibition at 10 µM [1]: 3.19%
